From US20240174690A1, “ANNULATED 2-AMINO-3-CYANO THIOPHENES AND DERIVATIVES FOR THE TREATMENT OF CANCER” (BOEHRINGER INGELHEIM INTERNATIONAL GMBH, priority 2021, published 2024)
Where two headings read alike, the source gives them in different places.

Experiments:
[1] = system: KRAS G12V-dependent Ba/F3 cells; experiment: Ba/F3 proliferation assay, KRAS G12V; assay type: cell-based; details: Mus musculus, BaF3, 72 h, AlamarBlue;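 note: proliferation IC50 in KRAS G12V-dependent Ba/F3 cells read by AlamarBlue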
Outline: (§1)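 Viability is measured as AlamarBlue fluorescence in Ba/F3 cells that depend on a transduced mutant KRAS isoform for growth without IL-3. Each treatment is run in technical duplicate, and dose-response curves are fitted.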

NCI-H358 cells = experiment: NCI-H358 CTG proliferation assay (120 h) (NSCLC, G12C); assay type: cell-based, human; details: Homo sapiens
Outline: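 NCI-H358 cells (KRAS G12C) were seeded at 2000/well (assay 1) or 200/well (assay 2) in RPMI-1640 + 10% FCS and dosed with a logarithmic series, DMSO-normalized. After 120 h, viability was read by CellTiter-Glo luminescence as percent of DMSO control, with a T0 read at dosing. IC50 came from a four-parameter fit.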

LOVO cells = experiment: LOVO CTG proliferation assay (120 h) (CRC, G13D); assay type: cell-based; details: Homo sapiens, CTG 120 h
Outline: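 LOVO cells, 1000 per well in DMEM + 10% FCS, were plated overnight and then dosed with compound from DMSO stock. After 120 h at 37 °C, viability was read by CellTiter-Glo luminescence as a percentage of DMSO controls. IC50 was derived by four-parameter non-linear regression.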

SK-CO-1 cells = experiment: SK-CO-1 CTG proliferation assay (120 h) (CRC, G12V); assay type: cell-based; details: Homo sapiens; SK-CO-1 cells (CRC, G12V), CTG 120 h
Outline: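 SK-CO-1 colorectal cells (KRAS G12V), 500 per well in EMEM + 10% FCS, dosed with compound the day after seeding and grown 120 h at 37 °C. Viability by CellTiter-Glo luminescence as percent of DMSO control; IC50 from four-parameter non-linear regression.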

[2] = system: KRAS G12C-dependent Ba/F3 cells; experiment: Ba/F3 proliferation assay, KRAS G12C; assay type: cell-based; details: Mus musculus, BaF3, 72 h, AlamarBlue
Outline: as §1

SAS cells = experiment: SAS CTG proliferation assay (120 h) (HNSCC, wt amplified); assay type: cell-based
Outline: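 SAS cells plated at 300 per well in DMEM:F12 with 10% FCS and left overnight, then given compounds acoustically. After 120 h exposure, viability read by CellTiter-Glo as percent of DMSO control. IC50 from four-parameter non-linear regression.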

[3] = assay 2, CTG, read-out: H358 (assay 2) IC50
[4] = assay 1, CTG, read-out: H358 (assay 1) IC50

| IC50 [1] | IC50 (NCI-H358 cells; [3]) | IC50 (LOVO cells) | IC50 (SK-CO-1 cells) | IC50 [2] | IC50 (NCI-H358 cells; [4]) | Structure (SMILES) | IC50 (SAS cells) |
| --- | --- | --- | --- | --- | --- | --- | --- |
| 8 nM | 205 nM | 66 nM | 31 nM | 9 nM |  | C[C@H](Oc1cc(-c2ccn(C[C@@H](C)O)n2)nc(-c2onc3c2CCC[C@@]32CCCc3sc(N)c(C#N)c32)n1)[C@@H]1CCCN1C [I-30] | 50 nM |
| 16 nM | 44 nM | 345 nM | 115 nM | 18 nM | 112 nM | C[C@H](Oc1cc(-c2ccn(C)n2)nc(-c2noc3c2CCC[C@@]32CCCc3sc(N)c(C#N)c32)n1)[C@@H]1C[C@@H](F)CN1C [II-27] | 151 nM |
| 3 nM | 4 nM | 109 nM | 3 nM | 5 nM |  | C[C@H](Oc1cc(-n2ccc(C(=O)NC3(C)COC3)n2)nc(-c2noc3c2CCC[C@@]32CCCc3sc(N)c(C#N)c32)n1)[C@@H]1CCCN1C [II-26] | 5 nM |
| 1 nM | 5 nM | 39 nM | 9 nM | 2 nM |  | COCCNC(=O)c1ccn(-c2cc(O[C@@H](C)[C@@H]3[C@@H](OC)CCN3C)nc(-c3onc4c3CCC[C@@]43CCCc4sc(N)c(C#N)c43)n2)n1 [I-55] | 10 nM |
| 2 nM | 2 nM | 158 nM | 9 nM | 2 nM | 6 nM | CNC(=O)c1ccn(-c2cc(O[C@@H](C)[C@@H]3CCCN3C)nc(-c3noc4c3CCC[C@@]43CCCc4sc(N)c(C#N)c43)n2)n1 [II-20] | 86 nM |
| 15 nM | 2760 nM | 1650 nM | 381 nM | 18 nM |  | C[C@H](Oc1cc(-n2nccn2)nc(-c2onc3c2CCC[C@@]32CCCc3sc(N)c(C#N)c32)n1)[C@@H]1CCCN1C [I-29] | 97 nM |
| 581 nM | 2160 nM | 736 nM | 1070 nM | 724 nM |  | C[C@H](Oc1cc(N2CCC(N(C)C)CC2)nc(-c2noc3c2CCC[C@@]32CCCc3sc(N)c(C#N)c32)n1)[C@@H]1CCCN1C [II-48] | 3880 nM |
| 453 nM | 470 nM | 315 nM | 763 nM | 280 nM |  | C[C@H](Oc1cc(N2CCNC3(CC3)C2)nc(-c2onc3c2CCC[C@@]32CCCc3sc(N)c(C#N)c32)n1)[C@@H]1C[C@@H](F)CN1C [I-45] | 1190 nM |
| 184 nM | 145 nM | 223 nM | 515 nM | 130 nM |  | CO[C@H]1CCN(C)[C@@H]1[C@H](C)Oc1cc(N2CCNC3(CC3)C2)nc(-c2onc3c2CCC[C@@]32CCCc3sc(N)c(C#N)c32)n1 [I-49] | 905 nM |
| 389 nM | 136 nM | 493 nM | 1390 nM | 271 nM |  | [2H]C([2H])([2H])N1C[C@H](F)C[C@H]1[C@H](C)Oc1cc(N2CCN(C)C3(CC3)C2)nc(-c2noc3c2CCC[C@@]32CCCc3sc(N)c(C#N)c32)n1 [II-209] | 737 nM |
| 14 nM | 76 nM | 161 nM | 84 nM | 7 nM |  | C[C@H](Oc1cc(-c2ccn(C3COC3)n2)nc(-c2onc3c2CCC[C@@]32CCCc3sc(N)c(C#N)c32)n1)[C@@H]1CCCN1C [I-34] | 185 nM |
| 13 nM | 140 nM | 281 nM | 118 nM | 17 nM |  | C[C@H](Oc1cc(-c2ccn(CC(C)(C)O)n2)nc(-c2onc3c2CCC[C@@]32CCCc3sc(N)c(C#N)c32)n1)[C@@H]1CCCN1C [I-26] | 89 nM |
| 6 nM | 5 nM | 29 nM | 14 nM | 4 nM |  | COCCNC(=O)c1ccn(-c2cc(O[C@@H](C)[C@@H]3CCCN3C)nc(-c3onc4c3CCC[C@@]43CCCc4sc(N)c(C#N)c43)n2)n1 [I-58] | 45 nM |
| 14 nM | 398 nM | 92 nM | 193 nM | 28 nM |  | C[C@H](Oc1cc(C2CCCO2)nc(-c2noc3c2CCC[C@@]32CCCc3sc(N)c(C#N)c32)n1)[C@@H]1CCCN1C (some centres unmarked) [II-44] | 6000 nM |
| 1 nM | 2 nM | 22 nM | 5 nM | 2 nM |  | C[C@H](NC(=O)c1ccn(-c2cc(O[C@@H](C)[C@@H]3CCCN3C)nc(-c3onc4c3CCC[C@@]43CCCc4sc(N)c(C#N)c43)n2)n1)c1ccccn1 [I-59] | 15 nM |
| 65 nM | 143 nM | 182 nM | 365 nM | 69 nM |  | C[C@H](Oc1cc(N2CCNC3(COC3)C2)nc(-c2noc3c2CCC[C@@]32CCCc3sc(N)c(C#N)c32)n1)[C@@H]1CCCN1C [II-31] | 208 nM |
| 7 nM |  | 79 nM | 139 nM | 10 nM | 1 nM | CO[C@@H]1C[C@@H]([C@H](C)Oc2cc(-c3ccn(C)n3)nc(-c3onc4c3CCC[C@@]43CCCc4sc(N)c(C#N)c43)n2)N(C)C1 [I-23] | 24 nM |
| 456 nM | 1300 nM | 508 nM | 488 nM | 381 nM |  | C[C@H](Oc1cc(N2CCNC3(CCC3)C2)nc(-c2noc3c2CCC[C@@]32CCCc3sc(N)c(C#N)c32)n1)[C@@H]1CCCN1C [II-40] | 979 nM |
| 351 nM | 1320 nM | 2160 nM | 2090 nM | 345 nM |  | C[C@H](Oc1cc(N2CCNC3(CCC3)C2)nc(-c2onc3c2CCC[C@@]32CCCc3sc(N)c(C#N)c32)n1)[C@@H]1CCCN1C [I-3] | 4890 nM |
| 134 nM | 740 nM | 205 nM | 541 nM | 69 nM |  | C[C@H](Oc1cc(N2CCNC3(COC3)C2)nc(-c2onc3c2CCC[C@@]32CCCc3sc(N)c(C#N)c32)n1)[C@@H]1CCCN1C [I-4] | 395 nM |
| 5 nM | 136 nM | 149 nM | 38 nM | 34 nM |  | C[C@H](Oc1cc(-c2ccn([C@H]3CCCOC3)n2)nc(-c2noc3c2CCC[C@@]32CCCc3sc(N)c(C#N)c32)n1)[C@@H]1CCCN1C [II-42] | 264 nM |
| 7 nM | 121 nM | 265 nM | 52 nM | 18 nM |  | C[C@H](Oc1cc(-c2cnsc2)nc(-c2onc3c2CCC[C@@]32CCCc3sc(N)c(C#N)c32)n1)[C@@H]1CCCN1C [I-27] | 109 nM |
| 438 nM | 160 nM | 49 nM | 444 nM | 429 nM |  | C[C@H](Oc1cc(N2C[C@H](C)NC3(CC3)C2)nc(-c2noc3c2CCC[C@@]32CCCc3sc(N)c(C#N)c32)n1)[C@@H]1C[C@@H](F)CN1C [II-18] | 293 nM |
| 1050 nM | 2330 nM | 925 nM | 1210 nM | 509 nM |  | C[C@H](Oc1cc(N2CCN(C)C3(CCC3)C2)nc(-c2onc3c2CCC[C@@]32CCCc3sc(N)c(C#N)c32)n1)[C@@H]1CCCN1C [I-44] | 1200 nM |
| 41 nM | 240 nM | 390 nM | 131 nM | 67 nM |  | Cc1ccc(-c2cc(O[C@@H](C)[C@@H]3CCCN3C)nc(-c3onc4c3CCC[C@@]43CCCc4sc(N)c(C#N)c43)n2)cn1 [I-28] | 934 nM |
| 1340 nM | 3890 nM | 165 nM | 1080 nM | 1180 nM |  | C[C@H](Oc1cc(N2CCN(C)C3(COC3)C2)nc(-c2onc3c2CCC[C@@]32CCCc3sc(N)c(C#N)c32)n1)[C@@H]1C[C@@H](F)CN1C [I-37] | 412 nM |
| 43 nM | 577 nM | 1270 nM | 418 nM | 77 nM |  | C[C@H](Oc1cc(Cl)nc(-c2onc3c2CCC[C@@]32CCCc3sc(N)c(C#N)c32)n1)[C@@H]1CCCN1C [I-1] | 2880 nM |
| 957 nM | 570 nM | 972 nM | 1660 nM | 844 nM |  | C[C@H](Oc1cc(N2C[C@@H](N(C)C)[C@@H](O)C2)nc(-c2noc3c2CCC[C@@]32CCCc3sc(N)c(C#N)c32)n1)[C@@H]1CCCN1C [II-10] | 3540 nM |
| 811 nM | 733 nM | 439 nM | 2050 nM | 448 nM |  | CO[C@@H]1C[C@@H]([C@H](C)Oc2cc(N3CCN(C)C4(CC4)C3)nc(-c3onc4c3CCC[C@@]43CCCc4sc(N)c(C#N)c43)n2)N(C)C1 [I-50] | 2900 nM |
